The test system of one experiment is Cutibacterium acnes. The experiment can be described thus: Minimum inhibitory concentration against Propionibacterium acnes was determined. It is filed as functional.
Another experiment deals with Staphylococcus aureus. The experiment can be described thus: Minimum inhibitory concentration against Staphylococcus aureus was determined. It counts as functional.

As usually defined, the MIC is the lowest concentration that inhibits growth of the organism.

In brackets after ≈: the same amount, converted by molar mass. Some results are limits rather than exact numbers.

With `CC(C)=CCC/C(C)=C/CCC(C)O` (stereo not given), the results for the MIC in the experiment with Cutibacterium acnes and in the experiment with Staphylococcus aureus were 25 µg/mL (≈ 127 µM) and 50 µg/mL (≈ 255 µM), respectively.

`CC(C)=CCC/C(C)=C/CC/C(C)=C/CCC(C)O` (stereo not given): the MIC in the experiment with Cutibacterium acnes was 1.56 µg/mL (≈ 5.9 µM); in the experiment on Staphylococcus aureus, more than 800 µg/mL.

For the molecule `CCCCCCCCCCCCCCCO`, the MIC was 0.78 µg/mL (≈ 3.41 µM) in the experiment with Cutibacterium acnes and more than 800 µg/mL in the experiment on Staphylococcus aureus.

On to `CCCCCCCCCCCCCCCCCO`, for which the MIC against Cutibacterium acnes and in the experiment on Staphylococcus aureus was more than 800 µg/mL each time.

`CCCCCCCCCCCCCCCCCCCCO` [1-EICOSANOL]: the MIC in the experiment with Cutibacterium acnes and in the experiment with Staphylococcus aureus was more than 800 µg/mL throughout.

For `CCCCCCCO` [1-HEPTANOL], the MIC in the experiment on Cutibacterium acnes is 400 µg/mL (≈ 3440 µM); against Staphylococcus aureus, more than 800 µg/mL.

With `CCCCCCO` [1-HEXANOL], the MIC against Cutibacterium acnes and in the experiment with Staphylococcus aureus was more than 800 µg/mL each time.

On to `CCCCCCCCCCCCCCCCCCO` [CETOSTEARYL ALCOHOL], for which the minimal inhibitory concentration (MIC) in the experiment with Cutibacterium acnes and in the experiment on Staphylococcus aureus was more than 800 µg/mL in each case.

In the case of `CCCCCCCCCCCCCCCCO` [CETYL ALCOHOL], the MIC against Cutibacterium acnes is 0.78 µg/mL (≈ 3.22 µM); against Staphylococcus aureus, more than 800 µg/mL.

`CCCCCCCCCCO` [DECANOL]: the MIC turned out to be 25 µg/mL (≈ 158 µM) in the experiment on Cutibacterium acnes and 50 µg/mL (≈ 316 µM) against Staphylococcus aureus.

With `CCCCCCCCCCCCO` [DODECANOL], the MIC against Cutibacterium acnes worked out at 3.13 µg/mL (≈ 16.8 µM); against Staphylococcus aureus it was 6.25 µg/mL (≈ 33.5 µM).

`CC(C)=CCC/C(C)=C/CC/C(C)=C/CO` [FARNESOL]: the minimal inhibitory concentration (MIC) with Cutibacterium acnes and against Staphylococcus aureus was 6.25 µg/mL (≈ 28.1 µM) each time.

As for `CC(C)=CCC/C(C)=C/CO` [GERANIOL], the MIC with Cutibacterium acnes is 400 µg/mL (≈ 2590 µM); against Staphylococcus aureus it was 800 µg/mL (≈ 5190 µM).

For `C=CC(C)(O)CCC=C(C)C` (stereo not given) [LINALOOL], the MIC in the experiment on Cutibacterium acnes and against Staphylococcus aureus was more than 800 µg/mL each time.

Regarding `CCCCCCCCCCCCCCO` [MYRISTYL ALCOHOL], the MIC is 1.56 µg/mL (≈ 7.28 µM) against Cutibacterium acnes and more than 800 µg/mL in the experiment on Staphylococcus aureus.

For the molecule `C=CC(C)(O)CC/C=C(\C)CCC=C(C)C` (stereo not given) [NEROLIDOL], the figures for the MIC with Cutibacterium acnes and against Staphylococcus aureus were 25 µg/mL (≈ 112 µM) and 50 µg/mL (≈ 225 µM), respectively.

In the case of `CCCCCCCCCO` [NONANOL], the results for the minimal inhibitory concentration (MIC) against Cutibacterium acnes and in the experiment with Staphylococcus aureus were 100 µg/mL (≈ 693 µM) and 200 µg/mL (≈ 1390 µM), respectively.

For the molecule `CCCCCCCCO` [OCTANOL], the MIC came out at 200 µg/mL (≈ 1540 µM) against Cutibacterium acnes and 800 µg/mL (≈ 6140 µM) against Staphylococcus aureus.

With `CCCCCCCCCCCCCO` [TRIDECAN-1-OL], the figures for the MIC against Cutibacterium acnes and in the experiment on Staphylococcus aureus were 1.56 µg/mL (≈ 7.79 µM) and more than 800 µg/mL, respectively.

For `CCCCCCCCCCCO` [UNDECANOL], the MIC in the experiment on Cutibacterium acnes turned out to be 12.5 µg/mL (≈ 72.5 µM); in the experiment on Staphylococcus aureus it was 25 µg/mL (≈ 145 µM).
